Laboratory results from PubChem BioAssay (NCI).
Values joined by “and” are separate entries in the source; they are usually repeats but may differ in a detail not shown here. Equal values may be shown once.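 Protocol summary: plate cells (96-well), add compound at 5 concentrations, incubate 48 h, interpolate endpoints linearly. GI50 is the concentration that inhibits growth by half. At the TGI there is no net growth.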

Key:
Assay in all cases: growth of human tumour cells (NCI), 48 h
HL-60(TB) leukemia = system: HL-60(TB) leukemia
HT29 colon = system: HT29 colon
NCI-H226 lung = system: NCI-H226 lung
SF-268 CNS = system: SF-268 CNS
SK-OV-3 ovarian = system: SK-OV-3 ovarian
SNB-75 CNS = system: SNB-75 CNS
A549 NSCLC = system: A549 NSCLC
SR leukemia = system: SR leukemia
SK-MEL-5 melanoma = system: SK-MEL-5 melanoma
T-47D breast = system: T-47D breast

SMILES	TGI (HL-60(TB) leukemia) [µM]	TGI (HT29 colon) [µM]	TGI (NCI-H226 lung) [µM]	TGI (SF-268 CNS)	TGI (SK-OV-3 ovarian)	TGI (SNB-75 CNS)	TGI (A549 NSCLC)	TGI (SR leukemia) [µM]	GI50 (A549 NSCLC) [µM]	GI50 (HL-60(TB) leukemia) [µM]	GI50 (HT29 colon) [µM]	GI50 (NCI-H226 lung) [µM]	GI50 (SF-268 CNS) [µM]	GI50 (SK-MEL-5 melanoma) [µM]	TGI (SK-MEL-5 melanoma) [µM]	GI50 (SK-OV-3 ovarian) [µM]	GI50 (SNB-75 CNS) [µM]	GI50 (T-47D breast) [µM]	TGI (T-47D breast) [µM]
COc1cc([C@H]2c3cc4c(cc3[C@H](NCc3ccc(F)cc3)C3COC(=O)[C@H]32)OCO4)cc(OC)c1O (some centres not stated)	4.7	27	7.61	> 100 µM	9.78 µM	9.16 µM	–	–	–	–	–	–	–	–	–	–	–	–	–
O=C(Nc1c(Cl)cc([N+](=O)[O-])cc1Cl)C(=O)C(C(=O)c1ccncc1)C1OC(=O)c2ccccc21 (configuration not stated)	> 100	> 100	> 100	> 100 µM	> 100 µM	> 100 µM	> 100 µM	> 100	–	–	–	–	–	–	–	–	–	–	–
COc1cc2c(c(OC)c1OC)-c1ccc(SC)c(=O)cc1C(CC(=O)Oc1ccccc1F)C2 (configuration not stated)	1.37	0.0324	0.444	> 7.5 µM	> 7.5 µM	> 7.5 µM	> 7.5 µM	> 7.5	–	–	–	–	–	–	–	–	–	–	–
C#CCN(CCCOc1ccc(Cl)cc1Cl)CCCSC(=O)CCCCCN1/C(=C\C=C2/CCCC(/C=C/C3=[N+](CCCCCC(=O)[O-])c4ccccc4C3(C)C)=C2Cl)C(C)(C)c2ccccc21	4.79	6.47	4.11	6.74 µM	8.86 µM	3.85 µM	13.2 µM	–	3.22	1.62	2.49	1.72	1.84	1.62	3.02	2.97	1.3	0.768	3.21
COc1ccc(C2NC(c3ccc(OC)cc3)C(C)C(=O)C2C)cc1 (configuration not stated)	> 100	> 100	–	> 100 µM	> 100 µM	> 100 µM	–	–	–	–	–	–	–	–	–	–	–	–	–
CC(=O)O[C@H]1C(=O)[C@@]2(C)C([C@H](OC(=O)c3ccccc3)[C@]3(O)C[C@H](OC(=O)[C@H](O)[C@@H](NC(=O)c4ccc(Cl)cc4)c4ccccc4)C(C)=C1C3(C)C)C1(OC(C)=O)CO[C@@H]1C[C@@H]2O (some centres not stated)	0.00466	10.4	25	25 µM and 82.5 µM	13.7 µM and 36.7 µM	0.603 µM and 0.178 µM	25 µM and > 100 µM	–	0.0219	–	–	–	–	–	13.5	–	–	–	25
O=C(Cc1csc2nc(-c3ccc(Br)cc3)cn12)N/N=C/c1ccccc1O	–	19.2	7.84	> 100 µM	30.2 µM	32 µM	24.2 µM	–	6.22	–	5.97	1.93	> 100	2.98	10.6	12.8	13	5.22	23.2
Cc1cc(N(CCC#N)CCC#N)ccc1/C=C1N=C(/C=C\c2ccccc2)N(c2ccc(C(=O)O)cc2)C\1=O	> 100	> 100	> 100	> 100 µM	> 100 µM	> 100 µM	> 100 µM	> 100	–	–	–	–	–	–	> 100	–	–	–	–
O=C(/C=N/O)Nc1cccc(Cl)c1I	> 100	> 100	> 100	> 100 µM	> 100 µM	43.4 µM	> 100 µM	> 100	–	–	–	–	–	–	> 100	–	–	–	–
Cc1ccc(-n2cc(/C(N)=N/O)c3ccccc3c2=O)cc1	> 100	> 100	> 100	> 100 µM	> 100 µM	–	> 100 µM	> 100	–	–	–	–	–	–	> 100	–	–	–	–
Nc1nc2c([nH]1)c1[nH]c3ccccc3c1c1[nH]c3ccccc3c21	38.1	17.4	45.5	32.6 µM	29.7 µM	25.1 µM	33.4 µM	–	17.1	18.4	5.5	19.8	16.2	14	27	16.2	11.9	–	–
c1ccc2c(c1)n1nnnc1c1nnnn21	–	> 100	> 100	> 100 µM	> 100 µM	84.3 µM	> 100 µM	–	–	–	–	–	–	–	> 100	–	–	–	–
COc1cc(COC(=O)N(C)[C@@H](Cc2ccccc2)C(=O)O)c([N+](=O)[O-])cc1OC	> 100	> 100	> 100	> 100 µM	> 100 µM	> 100 µM	> 100 µM	–	–	–	–	–	–	–	> 100	–	–	–	> 100
O=S1(=O)CS(=O)(=O)OCCCCCO1	–	> 100	> 100	> 100 µM	> 100 µM	> 100 µM	> 100 µM	–	–	–	–	–	–	–	–	–	–	–	–
CC1(C)N=C(N)N=C(N)N1c1ccc(CCCCCCc2ccc(S(=O)(=O)F)cc2)cc1	> 37.3	17.1	1.96	31.3 µM	23.3 µM	24.8 µM	2.76 µM	–	–	–	–	–	–	–	2.76	–	–	–	52
COc1ccc2c(c1)CCC1C2CCC2(C)C(NC(=O)CCCCC3CCSS3)CCC12 (configuration not stated)	> 100	39.2	> 100	> 100 µM	> 100 µM	> 100 µM	> 100 µM	–	32.5	3.75	4.3	> 100	6.85	3.26	20.3	43.8	18.2	3.56	> 100
CCOC(=O)c1cnc2c(ccc3ncccc32)c1OCC	> 100	> 100	> 100	> 100 µM	> 100 µM	> 100 µM	> 100 µM	> 100	–	–	–	–	–	–	> 100	–	–	–	–
O=C(CC/C(CC(=O)c1ccc(Cl)cc1)=N\O)Nc1cccc(Cl)c1	–	> 100	–	> 100 µM	> 100 µM	> 100 µM	> 100 µM	–	–	–	–	–	–	–	> 100	–	–	–	–
COc1ccc(/C(C#N)=C2/O/C(=N/N)C(c3ccc(OC)c(OC)c3)C2=O)cc1OC (configuration not stated)	> 100	> 100	> 100	> 100 µM	> 100 µM	> 100 µM	> 100 µM	> 100	–	–	–	–	–	–	> 100	–	–	–	–
Cc1ccccc1NC(=O)C(=O)CC(=O)c1sc(-n2nc(-c3ccccc3)cc2-c2ccccc2)nc1C	> 100	> 100	> 100	> 100 µM	> 100 µM	> 100 µM	> 100 µM	> 100	–	–	–	–	–	–	–	–	–	–	–
CCOC(=O)C(=O)Nc1nc2ccc(OC)cc2s1	> 100	> 100	> 100	> 100 µM	> 100 µM	> 100 µM	> 100 µM	–	–	–	–	–	–	–	> 100	–	–	–	–
